From ChEMBL document CHEMBL4602674, “19-nor-, 20-nor-, and tetranor-Halimane-Type Furanoditerpenoids from Croton crassifolius” (J Nat Prod, 2020)

Assays:
[1] = test system: RAW264.7; test: Cytotoxicity against mouse RAW264.7 cells at 50 uM after 48 hrs by MTT assay; assay type: cell-based; details: raw264.7, 48 h
[2] = test system: RAW264.7; test: Inhibition of LPS-induced NO production in mouse RAW264.7 cells preincubated for 30 mins followed by LPS stimulation and measured after 24 hrs by Griess assay; assay type: functional, cell-based

Compound | IC50 [2] [µM] | Activity [1]
COC(=O)[C@@]1(CO)CCCC2=C1C(=O)C[C@@H](C)[C@]21C[C@@H](c2ccoc2)OC1=O | > 50 | Non-Toxic
CO[C@@]12C[C@@H](C)[C@]3(C[C@@H](c4ccoc4)OC3=O)[C@@H]3CCCC(=C31)C(=O)O2 | > 50 | Non-Toxic
C[C@@H]1C[C@@H](O)C2=C(C[C@@H]3C[C@]2(C)C(=O)O3)[C@@]12C[C@@H](c1ccoc1)OC2=O | > 50 | Non-Toxic
COC(=O)[C@@]1(CO)CCCC2=C1[C@@H](OC(C)=O)C[C@@H](C)[C@]21C[C@@H](c2ccoc2)OC1=O | > 50 | Non-Toxic
COC(=O)[C@]1(C)CCCC2=C1CC[C@@H](C)[C@]2(C)CCC1=CC(=O)OC1 | > 50 | Non-Toxic
COC(=O)C1(C(=O)OC)C2=C(CC[C@@H]1OC(C)=O)[C@@]1(C[C@@H](c3ccoc3)OC1=O)[C@H](C)CC2=O | > 50 | Non-Toxic
COC(=O)C1(C(=O)OC)CCCC2=C1[C@@H]1C[C@@H](C)[C@@]2(CC(=O)c2ccoc2)C(=O)O1 | > 50 | Non-Toxic
COC(=O)[C@]1(C)C2=C(CC[C@H]1O)[C@@]1(C[C@@H](c3ccoc3)OC1=O)[C@H](C)C[C@@H]2OC(C)=O | > 50 | Non-Toxic
C[C@@H]1C[C@@H]2OC(=O)[C@]3(O)CCCC(=C23)[C@@]12C[C@@H](c1ccoc1)OC2=O | > 50 | Non-Toxic
COC(=O)C1(C(=O)OC)CCCC2=C(CC(=O)c3ccoc3)[C@H](C)CC=C21 | > 50 | Non-Toxic
COC(=O)[C@@]1(CO)CCCC2=C1[C@@H](O)C[C@@H](C)[C@]21C[C@@H](c2ccoc2)OC1=O | > 50 | Non-Toxic
COC(=O)[C@@]1(C)CC(=O)C=C2[C@@](C)(CC(=O)c3ccoc3)[C@H](C)CC[C@]21O | > 50 | Non-Toxic
C[C@@H]1C[C@H]2OC(=O)[C@@]3(CO)CCCC(=C23)[C@@]12C[C@@H](c1ccoc1)OC2=O | > 50 | Non-Toxic
COC(=O)[C@@]1(C)C2=C(CC[C@H]1OC(C)=O)[C@@]1(C[C@@H](c3ccoc3)OC1=O)[C@H](C)CC2=O | > 50 | Non-Toxic
COC(=O)[C@@]1(COC(C)=O)CCCC2=C1CC[C@@H](C)[C@]21C[C@@H](c2ccoc2)OC1=O | > 50 | Non-Toxic
COC(=O)[C@@]1(C)CCCC2=C1[C@@H](OC(C)=O)C[C@@H](C)[C@]21C[C@@H](c2ccoc2)OC1=O | > 50 | Non-Toxic
COC(=O)[C@@]1(C)C2=C(CC[C@H]1O)[C@@]1(C[C@@H](c3ccoc3)OC1=O)[C@H](C)CC2 | > 50 | Non-Toxic
C[C@@H]1CCC2=C(C[C@@H]3C[C@]2(C)C(=O)O3)[C@@]12C=C(c1ccoc1)OC2=O | > 50 | Non-Toxic
Cc1cc(O)cc2c1CC[C@@H](C)[C@]2(C)CC(=O)c1ccoc1 | 23.7 | Non-Toxic
COC(=O)[C@@]1(C)C2=C(CC[C@H]1OC(C)=O)[C@@]1(C[C@@H](c3ccoc3)OC1=O)[C@H](C)CC2 [CRASSIFOLIN F] | > 50 | Non-Toxic
O=c1c(O)c(-c2ccc(O)c(O)c2)oc2cc(O)cc(O)c12 [QUERCETIN] | 15.1 | 
C[C@@H]1C[C@@H]2OC(=O)C3=C2[C@H](CCC3)[C@@]12C[C@@H](c1ccoc1)OC2=O [TEUCVIN] | > 50 | Non-Toxic

More lines, main results first:

IC50 [2] [µM] | Compound | Activity [1]
> 50 | COC(=O)C1(C(=O)OC)CCCC2=C1[C@@H](OC(C)=O)C[C@@H](C)[C@]21C[C@@H](c2ccoc2)OC1=O | Non-Toxic
> 50 | C[C@@H]1C[C@H]2OC(=O)C3=C2[C@@H](CCC3)[C@@]12C[C@@H](c1ccoc1)OC2=O | Non-Toxic
> 50 | CO[C@@H]1C[C@@H](C)[C@](C)(CC(=O)c2ccoc2)C2=C1[C@]1(C)C[C@H](C2)OC1=O | Non-Toxic
> 50 | COC(=O)[C@]1(C)CCCC2=C1C(=O)C[C@@H](C)[C@]2(C)CCC1=CC(=O)OC1 | Non-Toxic
> 50 | COC(=O)[C@@]1(COC(C)=O)CCCC2=C1[C@@H](O)C[C@@H](C)[C@]21C[C@@H](c2ccoc2)OC1=O | Non-Toxic
> 50 | COC(=O)[C@@]1(C)CCCC2=C1[C@@H](O)C[C@@H](C)[C@]21C[C@@H](c2ccoc2)OC1=O | Non-Toxic
> 50 | C[C@@H]1C[C@@H]2OC(=O)C3=C2[C@](O)(CCC3)[C@@]12C[C@@H](c1ccoc1)OC2=O | Non-Toxic
17.2 | CC1=CC(=O)C2=C3[C@@]1(O)CC[C@@H](C)[C@]3(C)C=C2c1ccoc1 | Non-Toxic
> 50 | COC(=O)[C@@]1(C)CC(=O)C2=C3[C@@](C)(CC2=O)[C@H](C)CC[C@]31O | Non-Toxic
> 50 | C[C@@H]1CCC2=C(C[C@H]3C[C@]2(C)C(=O)O3)[C@@]1(C)CC(=O)c1ccoc1 | Non-Toxic
